This note sets out measurements from patent US20230330243A1, “COMBINATION OF ANTIBODY-DRUG CONJUGATE AND ATR INHIBITOR” (Daiichi Sankyo Company, Limited, priority 2020, published 2023).

Structures can show the parent of a compound that is named as a salt.

The test system of experiment [1] is DU145-SLFN11 KO (CRISPR-Cas9 gene knockout of SLFN11). The experiment can be described thus: Nuclear cell count growth inhibition, 4 to 8 days (Example 4). In kind it is cell-based. Conditions: Prostate, HER2 Low, monotherapy. The method, then: (§1) Cells grown in their respective conditions were plated in 96-well plates at optimal density to allow linear proliferation for the duration of the assay (4 to 8 days; duration of treatment is dependent on the growth rate of each cell line). Immediately after plating, the cells were dosed with the indicated compounds for a total volume of 200 µL/well and placed in the incubator. Combinations were conducted as a 6 × 8 concentration response matrix for each combination. At the endpoint, the cells were fixed in 2% PFA for 20 minutes at room temperature. In order to obtain the number of cells at the start of treatment, one additional plate was used for each experiment and fixed after cells attached. The cells were then permeabilised in 0.5% Triton-X100 in PBS for 10 minutes. After a PBS wash, the cells were blocked in 5% FBS in PBS 1h at RT and incubated with primary antibodies in 5% FBS + 0.05% triton overnight at 4° C. After 3 washes in PBS cells were incubated with secondary antibodies in 5% FBS + 0.05% triton with Hoechst33258 for 1h at room temperature. After 3 washes in PBS, the cells were scanned with a Cellinsight instrument with a 10× objective and 9 fields/well. Images were analysed using Columbus for cell count based on nuclear Hoechst staining and nuclear intensity of other biomarkers investigated. […]

The next experiment relates to KPL4. The experiment can be described thus: Nuclear cell count growth inhibition / synergy and IF biomarkers, 4 to 8 days (Example 4). In kind it is cell-based. The method, then:
(§2) Cells grown in their respective conditions were plated in 96-well plates at optimal density to allow linear proliferation for the duration of the assay (4 to 8 days; duration of treatment is dependent on the growth rate of each cell line). Immediately after plating, the cells were dosed with the indicated compounds for a total volume of 200 µL/well and placed in the incubator. Combinations were conducted as a 6 × 8 concentration response matrix for each combination. At the endpoint, the cells were fixed in 2% PFA for 20 minutes at room temperature. In order to obtain the number of cells at the start of treatment, one additional plate was used for each experiment and fixed after cells attached. The cells were then permeabilised in 0.5% Triton-X100 in PBS for 10 minutes. After a PBS wash, the cells were blocked in 5% FBS in PBS 1h at RT and incubated with primary antibodies in 5% FBS + 0.05% triton overnight at 4° C. After 3 washes in PBS cells were incubated with secondary antibodies in 5% FBS + 0.05% triton with Hoechst33258 for 1h at room temperature. After 3 washes in PBS, the cells were scanned with a Cellinsight instrument with a 10× objective and 9 fields/well. Images were analysed using Columbus for cell count based on nuclear Hoechst staining and nuclear intensity of other biomarkers investigated. The total cell count/well was used to calculate the relative growth in each well compared to solvent control. […] The mean/well of the sum of the nuclear intensity of the IF biomarkers was also expressed relative to solvent control.

The next experiment concerns MDA-MB-468. The description is as above. The experiment is classed as cell-based. How it is done: as §2
Experiment [2] relates to ATR pathway in KPL4 (breast carcinoma) cells. In words: Antibody blots of ATR signaling (Example 6). In kind it is cell-based. How it is done: (§3) Gastric cancer NCI-N87 and breast carcinoma KPL4 cell lines were cultured in RPMI 1640 supplemented with 10 % FCS in a humidified incubator at 37° C. with 5% CO2. Cells were plated in 6-well plates at optimal density to allow linear proliferation for the duration of the assay. […] 7 h, 24 h or 48 h after dosing, whole-cell extracts were obtained by lysis in 50 mM Tris-HC1 pH 7.5, 2% SDS containing protease and phosphatase inhibitors. Lysates were boiled for 5 minutes at 95° C. Protein concentration was measured using a Nanodrop at […] and 50 µg of lysate were loaded in 4-12% Bis Tris gels. Proteins were transferred using iblot2. Primary antibodies (see Table 7) were incubated overnight at 4° C. in 3% milk TBS-tween 0.05% and HRP-conjugated secondary antibodies for 1h at room temperature. Blots were imaged using a G-box.

Experiment [3] deals with ATR pathway in NCI-N87 (gastric cancer) cells. In words: Antibody blots of ATR signaling (Example 6). The experiment is classed as cell-based. The method, then: as §3
For another experiment, the system named is NCI-N87. The experiment can be described thus: Nuclear cell count growth inhibition, 4 to 8 days (Example 4). The experiment is classed as cell-based. Conditions: Homo sapiens; NCI-N87, Gastric, HER2 High; monotherapy. The method, then:
as §1

The test system of a further experiment is JIMT-1. In words: Nuclear cell count growth inhibition / synergy, 4 to 8 days (Example 4). The experiment is classed as cell-based. Conditions: Homo sapiens; JIMT-1, Breast, HER2 Expressed; monotherapy. How it is done:
as §1

In a further experiment the test system is SK-OV-3. The description is as above. The experiment is classed as cell-based. Conditions: Homo sapiens; SK-OV-3, Ovarian, HER2 Moderate; monotherapy. The method, then:
as §1

Experiment [4] concerns NCI-N87 tumors implanted subcutaneously. In words: NCI-N87 xenograft tumor growth inhibition (Example 5). Conditions: AZD6738 25 mg/kg PO BID (14 d-on/14-d off); day 40 post treatment. In kind it is in vivo, Female Nude mice.
[5] abbreviates: DS-8201 at 30 µg/mL or exatecan mesylate alone, 7 h, 24 h or 48 h.
The mark [6] stands for this setting: AZD6738 at 1 µM in combination with DS-8201 or exatecan mesylate.

For orientation: GI50 means the concentration that inhibits growth by half. `CC[C@@]1(O)C(=O)OCc2c1cc1n(c2=O)Cc2c-1nc1cc(F)c(C)c3c1c2[C@@H](N)CC3` [Exatecan mesylate, (1S,9S)-1-amino-9-ethyl-5-fluoro-1,2,3,9,12,15-hexahydro-9-hydroxy-4-methyl-10H,13H-benzo[de]pyrano[3′,4′:6,7]indolizino[1,2-b]quinolin-10,13-dione, reference compound]: the GI50 in [1] was 0.45 nM. Also, the “Biomarkers of ATM (KAP1 pSer824) activation and DNA strand breaks (γH2AX)” value with KPL4 (KPL4, single agent) is listed as “induced in a concentration dependent manner”. The “Combination activity with AZD6738 (in words)” value in the experiment on KPL4 (high-HER2 KPL4, in combination with AZD6738, clinically relevant concentrations) is “synergistic activity and cell death”; in the experiment with MDA-MB-468 (HER2-negative MDA-MB-468, in combination with AZD6738) it was “still showed combination activity”. Also, the “ATR pathway (pATR-T1989, pChk1-S345) and cell cycle arrest (pCdc2-Y15)” value in experiment [2] (setting [5]) and in experiment [3] (setting [5]) was “induced activation of the ATR pathway” throughout.
Consider `C[C@@H]1COCCN1c1cc(C2([S@](C)(=N)=O)CC2)nc(-c2ccnc3[nH]ccc23)n1` [AZD6738, 4-{4-[(3R)-3-methylmorpholin-4-yl]-6-[1-((R)-S-methylsulfonimidoyl)cyclopropyl]pyrimidin-2-yl}-1H-pyrrolo[2,3-b]pyridine], for which the concentration for 50% growth inhibition (GI50) in the experiment with NCI-N87 is 436 nM; in the experiment on KPL4 (KPL4, Breast, HER2 High, monotherapy), > 3000 nM; in the experiment on MDA-MB-468 (Homo sapiens, MDA-MB-468, Breast, HER2 Low, monotherapy), 2070 nM; in the experiment with JIMT-1 it was 788 nM; with SK-OV-3, 1010 nM. Besides, in experiment [4], the “Best response %TGI/regression (maximum TGI)” value turned out to be 62%. In addition, the “Activation of pATR and pChk1 and cell cycle arrest induced by DS-8201 or exatecan mesylate” value in experiment [2] (AZD6738 at 1 µM in combination) is “inhibited the activation of pATR and pChk1 and cell cycle arrest”; in experiment [3] (AZD6738 at 1 µM in combination), “inhibited the activation of pATR and pChk1 and cell cycle arrest”. For the same compound, the “Cell death (cCasp3)” value in experiment [2] (setting [6]) and in [3] (setting [6]) was “increased cell death” each time. Also, the “DNA damage (pKap1, gH2AX)” value in experiment [2] (setting [6]) and in experiment [3] (setting [6]) was “exacerbating the DNA damage” throughout.
